The record followed here is patent US9394282B2, “Pyrazole carboxamides as Janus kinase inhibitors” (Merck Sharp & Dohme Corp., priority 2011, dated 2016).

The target in experiment [1] is JAK2 (Homo sapiens (Human), UniProt O60674). In words: Jak biochemical HTRF assay, JAK2. The conditions noted are these: recombinant purified GST-tagged catalytic domain; HTRF format; [ATP] […]. From the text: (§1) Jak Biochemical HTRF Assay Protocol
(§2) Subsequent reagent additions employed an Agilent Bravo.
(In general: Time-resolved FRET reads energy transfer from a long-lived donor to a nearby acceptor.)

Experiment [2] has as its target JAK1 (Homo sapiens (Human), UniProt P23458). As to the kind of experiment: Jak biochemical HTRF assay, JAK1. The following applies: recombinant purified GST-tagged catalytic domain; HTRF format; [ATP] 31.8 μM.
From the text: as §1, §2

What is called IC50 is the point on the concentration scale where inhibition reaches its midpoint.

Chain of JAK1 (P23458 875-1153): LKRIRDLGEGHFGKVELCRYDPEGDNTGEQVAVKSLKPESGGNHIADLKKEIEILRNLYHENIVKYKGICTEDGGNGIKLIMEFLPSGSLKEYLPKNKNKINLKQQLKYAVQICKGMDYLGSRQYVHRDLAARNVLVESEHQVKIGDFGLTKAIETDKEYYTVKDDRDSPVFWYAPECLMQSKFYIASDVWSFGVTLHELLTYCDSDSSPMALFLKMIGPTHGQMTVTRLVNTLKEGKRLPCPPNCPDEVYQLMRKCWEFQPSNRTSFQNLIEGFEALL
Chain of JAK2 (O60674 849-1124): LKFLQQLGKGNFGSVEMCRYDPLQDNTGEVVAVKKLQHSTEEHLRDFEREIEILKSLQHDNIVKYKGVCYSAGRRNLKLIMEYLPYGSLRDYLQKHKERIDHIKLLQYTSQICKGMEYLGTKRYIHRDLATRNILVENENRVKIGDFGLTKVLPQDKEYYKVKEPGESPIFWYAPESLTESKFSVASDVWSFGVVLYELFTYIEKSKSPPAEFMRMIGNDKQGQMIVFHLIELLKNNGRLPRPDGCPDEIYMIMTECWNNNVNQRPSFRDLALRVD

On to `N#C[C@@H]1CN(C(=O)OC2CCCCC2)CC[C@H]1n1cc(C(N)=O)c(Nc2ccc(F)cc2)n1` (mixture of isomers) [Example 5-17, cyclohexyl (3R,4R and 3S,4S)-4-{4-carbamoyl-3-[(4-fluorophenyl)amino]-1H-pyrazol-1-yl}-3-cyanopiperidine-1-carboxylate], for which, in experiment [1], the IC50 is 1230 nM.
As for `Cn1nccc1CN1CC[C@@H](n2cc(C(N)=O)c(Nc3ccc(F)cc3)n2)[C@H](C#N)C1` (mixture of isomers) [Example 6-32, 1-{(3R,4R and 3S,4S)-3-cyano-1-[(1-methyl-1H-pyrazol-5-yl)methyl]piperidin 4-yl}-3-[(4-fluorophenyl)amino]-1H-pyrazole-4-carboxamide], the IC50 in experiment [1] was 35 nM.
Regarding `N#C[C@@H]1CCN(C(=O)OCCC2CC2)CC1n1cc(C(N)=O)c(Nc2ccc(F)cc2)n1` (mixture of isomers) [Example 5-91, 2-cyclopropylethyl (3S,4R and 3R,4S)-3-{4-carbamoyl-3-[(4-fluorophenyl)amino]-1H-pyrazol-1-yl}-4-cyanopiperidine-1-carboxylate], the IC50 in experiment [2] turned out to be 1 nM.
Consider `COC1CC(CN2CC[C@@H](C#N)[C@H](n3cc(C(N)=O)c(Nc4ccc(F)cc4)n3)C2)C1` (mixture of isomers) [Example 6-9, 1-{(3S,4R and 3R,4S)-4-cyano-1-[(3-methoxycyclobutyl)methyl]piperidin-3-yl}-3-[(4-fluorophenyl)amino]-1H-pyrazole-4-carboxamide], for which, in experiment [2], the IC50 turned out to be 16 nM.
The same measure, in the same setting: for `N#C[C@@H]1CCN(Cc2cccnc2F)C[C@H]1n1cc(C(N)=O)c(Nc2ccc(F)cc2)n1` (racemic) [Example 6-17, 1-{(3S,4R and 3R,4S)-4-cyano-1-[(2-fluoropyridin-3-yl)methyl]piperidin-3-yl}-3-[(4-fluorophenyl)amino]-1H-pyrazole-4-carboxamide] the value was 1 nM.
The same measure, in the same setting: for `Cc1ncc(CN2CC[C@@H](C#N)[C@H](n3cc(C(N)=O)c(Nc4ccc(F)cc4)n3)C2)s1` (racemic) [Example 6-18, 1-{(3S,4R and 3R,4S)-4-cyano-1-[(2-methyl-1,3-thiazol-5-yl)methyl]piperidin-3-yl}-3-[(4-fluorophenyl)amino]-1H-pyrdzole-4-carboxamide] the value was 1 nM; for `N#C[C@@H]1CN(Cc2cocn2)CC[C@H]1n1cc(C(N)=O)c(Nc2ccc(F)cc2)n1` (racemic) [Example 6-25, 1-[(3R,4R and 3S,4S)-3-cyano-1-(1,3-oxazol-4-ylmethyl)piperidin-4-yl]-3-[(4-fluorophenyl)amino]-1H-pyrazole-4-carboxamide], 6 nM.
The same measure, in the same setting: the figure for `Cn1ccc(CN2CC[C@@H](n3cc(C(N)=O)c(Nc4ccc(F)cc4)n3)[C@H](C#N)C2)n1` (racemic) [Example 6-26, 1-{(3R,4R and 3S,4S)-3-cyano-1-[(1-methyl-1H-pyrazol-3-yl)methyl]piperidin-4-yl}-3-[(4-fluorophenyl)amino]-1H-pyrazole-4-carboxamide] is 17 nM.
As for `N#C[C@@H]1CN(Cc2cncc(F)c2)CC[C@H]1n1cc(C(N)=O)c(Nc2ccc(F)cc2)n1` (racemic) [Example 6-28, 1-{(3R,4R and 3S,4S)-3-cyano-1-[(5-fluoropyridin-3-yl)methyl]piperidin-4-yl}-3-[(4-fluorophenyl)amino]-1H-pyrazole-4-carboxamide], in experiment [2], the concentration for half-maximal inhibition (IC50) worked out at 6 nM.
Same read-out and setting: the figure for `COC1CC(CN2CC[C@@H](n3cc(C(N)=O)c(Nc4ccc(F)cc4)n3)[C@H](C#N)C2)C1` (mixture of isomers) [Example 6-30, 1-{(3R,4R and 3S,4S)-3-cyano-1-[(3-methoxycyclobutyl)methyl]piperidin-4-yl}-3-[(4-fluorophenyl)amino]-1H-pyrazole-4-carboxamide] is 16 nM; for `N#C[C@@H]1CN(CCC2CCOCC2)CC[C@H]1n1cc(C(N)=O)c(Nc2ccc(F)cc2)n1` (racemic) [Example 6-31, 1-{(3R,4R and 3S,4S)-3-cyano-1-[2-(tetrahydro-2H-pyran-4-yl)ethyl]piperidin-4-yl}-3-[(4-fluorophenyl)amino]-1H-pyrazole-4-carboxamide] it is 23 nM.
On the same count and under the same terms, for `N#C[C@@H]1CN(Cc2cccc(F)n2)CC[C@H]1n1cc(C(N)=O)c(Nc2ccc(F)cc2)n1` (racemic) [Example 6-36, 1-{(3R,4R and 3S,4S)-3-cyano-1-[(6-fluoropyridin-2-yl)methyl]piperidin-4-yl}-3-[(4-fluorophenyl)amino]-1H-pyrazole-4-carboxamide] the value was 2 nM.
Take `CC1=NOC(CN2CC[C@@H](n3cc(C(N)=O)c(Nc4ccc(F)cc4)n3)[C@H](C#N)C2)C1` (mixture of isomers) [Example 6-39, 1-{(3R,4R and 3S,4S)-3-cyano-1-[(3-methyl-4,5-dihydroisoxazol-5-yl)methyl]piperidin-4-yl}-3-[(4-fluorophenyl)amino]-1H-pyrazole-4-carboxamide]: in experiment [2], the IC50 stood at 4 nM.
Same read-out and setting: the figure for `N#C[C@@H]1CCN(Cc2cncs2)C[C@H]1n1cc(C(N)=O)c(Nc2ccc(F)cc2)n1` (racemic) [Example 7-1, 1-[(3S,4R and 3R,4S)-4-Cyano-1-(1,3-thiazol-5-ylmethyl)piperidin-3-yl]-3-[(4-fluorophenyl)amino]-1H-pyrazole-4-carboxamide] is 0.5 nM.
On to `N#C[C@H]1CS(=O)(=O)CC1n1cc(C(N)=O)c(Nc2ccnc(F)c2)n1` (mixture of isomers) [Example 8-8, 1-((3S,4S and 3R,4R)-4-cyano-1,1-dioxidotetrahydrothiophen-3-yl)-3-((2-fluoropyridin-4-yl)amino)-1H-pyrazole-4-carboxamide], for which, in experiment [2], the IC50 came to 5 nM.
On to `N#C[C@H]1CCOC[C@@H]1n1cc(C(N)=O)c(Nc2ccc(Cl)c(Cl)c2)n1` (single isomer, unassigned) [Example 9-10, 1-[(3R,4S or 3S,4R)-4-cyanotetrahydro-2H-pyran-3-yl]-3-[(3,4-dichlorophenyl)amino]-1H-pyrazole-4-carboxamide], for which the IC50 in experiment [2] came out at 26 nM.
On to `N#C[C@@H]1CCOC[C@H]1n1cc(C(N)=O)c(Nc2ccc(Cl)c(Cl)c2)n1` (single isomer, unassigned) [Example 9-11, 1-[(3S,4R or 3R,4S)-4-cyanotetrahydro-2H-pyran-3-yl]-3-[(3,4-dichlorophenyl)amino]-1H-pyrazole-4-carboxamide], for which the IC50 in experiment [2] came to 0.4 nM.
Still for that read-out and setting: the figure for `N#C[C@H]1CCOC[C@@H]1n1cc(C(N)=O)c(Nc2ccc(Cl)c(F)c2)n1` (single isomer, unassigned) [Example 9-12, 3-[(4-chloro-3-fluorophenyl)amino]-1-[(3R,4S or 3S,4R)-4-cyanotetrahydro-2H-pyran-3-yl]-1H-pyrazole-4-carboxamide] is 16 nM; for `N#C[C@@H]1CCOC[C@H]1n1cc(C(N)=O)c(Nc2ccc(Cl)c(F)c2)n1` (single isomer, unassigned) [Example 9-13, 3-[(4-chloro-3-fluorophenyl)amino]-1-[(3S,4R or 3R,4S)-4-cyanotetrahydro-2H-pyran-3-yl]-1H-pyrazole-4-carboxamide] it is 0.2 nM.
On the same count and under the same terms, the figure for `N#C[C@H]1CCOC[C@@H]1n1cc(C(N)=O)c(Nc2ccc(C(F)(F)F)nc2)n1` (single isomer, unassigned) [Example 9-14, 1-[(3R,4S or 3S,4R)-4-cyanotetrahydro-2H-pyran-3-yl]-3-{[6-(trifluoromethyl)pyridin-3-yl]amino}-1H-pyrazole-4-carboxamide] is 0.7 nM; for `N#C[C@@H]1CCOC[C@H]1n1cc(C(N)=O)c(Nc2ccc(C(F)(F)F)nc2)n1` (single isomer, unassigned) [Example 9-15, 1-[(3S,4R or 3R,4S)-4-cyanotetrahydro-2H-pyran-3-yl]-3-{[6-(trifluoromethyl)pyridin-3-yl]amino}-1H-pyrazole-4-carboxamide] it is 46 nM.
Same read-out and setting: the figure for `N#C[C@@H]1CCOC[C@H]1n1cc(C(N)=O)c(Nc2cnc3cc(Cl)ccc3c2)n1` (single isomer, unassigned) [Example 9-21, 3-[(7-chloroquinolin-3-yl)amino]-1-[(3S,4R or 3R,4S)-4-cyanotetrahydro-2H-pyran-3-yl]-1H-pyrazole-4-carboxamide] is 21 nM; for `N#C[C@H]1CCOC[C@@H]1n1cc(C(N)=O)c(Nc2cnc3cc(Cl)ccc3c2)n1` (single isomer, unassigned) [Example 9-22, 3-[(7-chloroquinolin-3-yl)amino]-1-[(3R,4S or 3S,4R)-4-cyanotetrahydro-2H-pyran-3-yl]-1H-pyrazole-4-carboxamide] it is 0.5 nM.
As for `COC(C)(C)c1ccc(Nc2nn([C@H]3COCC[C@@H]3C#N)cc2C(N)=O)cc1` (single isomer, unassigned) [Example 9-23, 1-[(3R,4S or 3S,4R)-4-cyanotetrahydro-2H-pyran-3-yl]-3-{[4-(1-methoxy-1-methylethyl)phenyl]amino}-1H-pyrazole-4-carboxamide], the IC50 in experiment [2] amounted to 3 nM.
As for `COC(C)(C)c1ccc(Nc2nn([C@@H]3COCC[C@H]3C#N)cc2C(N)=O)cc1` (single isomer, unassigned) [Example 9-25, 1-[(3S,4R or 3R,4R)-4-cyanotetrahydro-2H-pyran-3-yl]-3-{[4-(1-methoxy-1-methylethyl)phenyl]amino}-1H-pyrazole-4-carboxamide], the IC50 in experiment [2] is 0.1 nM.
As to `N#C[C@H]1CCOC[C@@H]1n1cc(C(N)=O)c(Nc2ccccc2)n1` (single isomer, unassigned) [Example 9-37, 1-[(3S,4R or 3R,4S)-4-cyanotetrahydro-2H-pyran-3-yl]-3-(phenylamino)-1H-pyrazole-4-carboxamide], the IC50 in experiment [2] is 10 nM.
Take `N#C[C@@H]1CCOC[C@H]1n1cc(C(N)=O)c(Nc2ccccc2)n1` (single isomer, unassigned) [Example 9-38, 1-[(3R,4S or 3S,4R)-4-cyanotetrahydro-2H-pyran-3-yl]-3-(phenylamino)-1H-pyrazole-4-carboxamide]: the IC50 in experiment [2] was determined as 0.3 nM.
